Assay results published in US20260258064A1 (SIRONAX LTD., priority 2023, published 2026).

biological target: T1, SARM1 (50-724) (Homo sapiens, UniProt Q6SZW1); assay: SARM1 (50-724) enzymatic assay (LC-MS/MS); format: biochemical; settings: Purified SARM1 (50-724) 2 nM, NMN as activator, NAD+ as substrate, 1 h at room temperature, read-out: IC50 (SARM1 inhibitory activity)
T1 construct: Purified SARM1 (50-724) with a final concentration of 2 nM was pre-incubated with a test compound
T1 sequence (Q6SZW1 50-724): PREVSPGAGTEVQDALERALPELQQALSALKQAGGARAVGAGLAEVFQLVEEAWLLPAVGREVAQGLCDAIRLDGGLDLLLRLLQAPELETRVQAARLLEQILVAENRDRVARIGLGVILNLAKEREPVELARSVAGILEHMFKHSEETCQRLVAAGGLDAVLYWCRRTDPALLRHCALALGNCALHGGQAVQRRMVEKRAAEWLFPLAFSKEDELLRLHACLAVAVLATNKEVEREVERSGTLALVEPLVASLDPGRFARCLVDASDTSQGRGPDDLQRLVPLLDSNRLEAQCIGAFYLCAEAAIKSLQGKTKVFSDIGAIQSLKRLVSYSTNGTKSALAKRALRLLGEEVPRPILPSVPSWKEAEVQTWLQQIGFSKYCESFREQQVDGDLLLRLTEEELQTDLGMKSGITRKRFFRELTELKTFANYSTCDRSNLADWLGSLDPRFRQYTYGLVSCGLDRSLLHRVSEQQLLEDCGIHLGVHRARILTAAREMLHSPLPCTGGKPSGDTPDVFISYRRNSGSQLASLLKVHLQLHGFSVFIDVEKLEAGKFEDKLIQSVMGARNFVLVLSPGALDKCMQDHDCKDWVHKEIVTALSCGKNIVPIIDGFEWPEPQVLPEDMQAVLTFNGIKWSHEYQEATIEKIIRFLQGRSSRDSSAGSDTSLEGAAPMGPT
Summary of the method: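 Human SARM1 (50-724), 2 nM, pre-incubated 15 min at room temperature with compound in Dulbecco's PBS. Reaction started with 200 µM NMN (activator) plus […] NAD^+ substrate, run 1 h at room temperature, quenched with 70% acetonitrile. Turnover quantified by LC-MS/MS; IC50 reported.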

IC50, ≤ 100 nM:
CS(=O)(=O)Cc1nnc(-c2nc3cc(C(F)(F)F)cc(F)c3[nH]2)n1-c1cccc(Cl)c1Cl [Compound 185, 2-(4-(2,3-dichlorophenyl)-5-((methylsulfonyl)methyl)-4H-1,2,4-triazol-3-yl)-4-fluoro-6-(trifluoromethyl)-1H-benzo[d]imidazole]
Fc1cc(C2CC23CCOC3)cc2nc(-c3nncn3-c3cnccc3C(F)(F)F)[nH]c12 (stereo not shown) [Compound 414, 7-fluoro-5-(5-oxaspiro[2.4]heptan-2-yl)-2-[4-[4-(trifluoromethyl)-3-pyridyl]-1,2,4-triazol-3-yl]-1H-benzimidazole]
Cc1cc(-c2ccc3[nH]c(-c4nncn4-c4cccc(Cl)c4Cl)nc3c2)[nH]n1 [Example 51, 2-(4-(2,3-dichlorophenyl)-4H-1,2,4-triazol-3-yl)-5-(3-methyl-1H-pyrazol-5-yl)-1H-benzo[d]imidazole]
NC(=O)Cc1nnc(-c2nc3cc(C(F)(F)F)ccc3[nH]2)n1-c1cccc(Cl)c1Cl [Example 122, 2-[4-(2,3-Dichlorophenyl)-5-[5-(trifluoromethyl)-1H-benzimidazol-2-yl]-1,2,4-triazol-3-yl]acetamide]
CC(C)(O)c1ccc2[nH]c(-c3nncn3-c3cccc(Cl)c3Cl)nc2c1 [Example 96, 2-(2-(4-(2,3-dichlorophenyl)-4H-1,2,4-triazol-3-yl)-1H-benzo[d]imidazol-5-yl)propan-2-ol]
OCCc1cccc(OC(F)(F)F)c1-n1cnnc1-c1nc2cc(C(F)(F)F)ccc2[nH]1 [Compound 295, 2-(3-(trifluoromethoxy)-2-(3-(5-(trifluoromethyl)-1H-benzo[d]imidazol-2-yl)-4H-1,2,4-triazol-4-yl)phenyl)ethan-1-ol]
CC(C#N)c1ccc2[nH]c(-c3nncn3-c3ccc(F)c(F)c3Cl)nc2c1 (stereo not shown) [Compound 152, 2-(2-(4-(2-chloro-3,4-difluorophenyl)-4H-1,2,4-triazol-3-yl)-1H-benzo[d]imidazol-5-yl)propanenitrile]
CNC(=O)Cc1nnc(-c2nc3cc(C(F)(F)F)ccc3[nH]2)n1-c1cccc(Cl)c1Cl [Compound 143, 2-(4-(2,3-Dichlorophenyl)-5-(5-(trifluoromethyl)-1H-benzo[d]imidazol-2-yl)-4H-1,2,4-triazol-3-yl)-N-methylacetamide]
FC(F)(F)Oc1cnc(C2CC2)cc1-n1cnnc1-c1nc2cc(C(F)(F)F)ccc2[nH]1 [Compound 221, 2-(4-(2-cyclopropyl-5-(trifluoromethoxy)pyridin-4-yl)-4H-1,2,4-triazol-3-yl)-5-(trifluoromethyl)-1H-benzo[d]imidazole]
O=S(=O)(Cc1nnc(-c2nc3cc(Cl)cc(F)c3[nH]2)n1-c1cccc(F)c1Cl)C1CC1 [Compound 194, 5-chloro-2-(4-(2-chloro-3-fluorophenyl)-5-((cyclopropylsulfonyl)methyl)-4H-1,2,4-triazol-3-yl)-7-fluoro-1H-benzo[d]imidazole]
FC(F)(F)c1cnc2[nH]c(-c3nncn3-c3cnccc3C(F)(F)F)cc2n1 [Compound 356, 2-(trifluoromethyl)-6-(4-(4-(trifluoromethyl)pyridin-3-yl)-4H-1,2,4-triazol-3-yl)-5H-pyrrolo[2,3-b]pyrazine]
FC(F)(F)c1ccc2[nH]c(-c3ccnn3-c3cnccc3C(F)(F)F)nc2c1 [Compound 449, 5-(trifluoromethyl)-2-(1-(4-(trifluoromethyl)pyridin-3-yl)-1H-pyrazol-5-yl)-1H-benzo[d]imidazole]
Fc1cc(C(F)(F)F)cc2nc(-c3nncn3-c3cnccc3C(F)(F)F)[nH]c12 [Compound 233, 7-Fluoro-5-(trifluoromethyl)-2-(4-(4-(trifluoromethyl)pyridin-3-yl)-4H-1,2,4-triazol-3-yl)-1H-benzo[d]imidazole]
Fc1ccc(-n2cnnc2-c2nc3cc(C(F)(F)F)ccc3[nH]2)c(OC(F)(F)F)c1 [Compound 189, 2-(4-(4-fluoro-2-(trifluoromethoxy)phenyl)-4H-1,2,4-triazol-3-yl)-5-(trifluoromethyl)-1H-benzo[d]imidazole]
CC(c1ccncc1)c1cc(F)c2[nH]c(-c3nncn3-c3cccc(F)c3Br)nc2c1 (stereo not shown) [Compound 462, 2-(4-(2-bromo-3-fluorophenyl)-4H-1,2,4-triazol-3-yl)-7-fluoro-5-(1-(pyridin-4-yl)ethyl)-1H-benzo[d]imidazole]
FC(F)(F)c1ccncc1-n1cnnc1-c1nc2cc(C3CCCC3)ccc2[nH]1 [Compound 364, 5-cyclopentyl-2-(4-(4-(trifluoromethyl)pyridin-3-yl)-4H-1,2,4-triazol-3-yl)-1H-benzo[d]imidazole]
Fc1cc(C2CC23CC3)cc2nc(-c3nncn3-c3cnccc3C(F)(F)F)[nH]c12 (stereo not shown) [Compound 338, 7-fluoro-5-spiro[2.2]pentan-2-yl-2-[4-[4-(trifluoromethyl)-3-pyridyl]-1,2,4-triazol-3-yl]-1H-benzimidazole]
FC(F)(F)c1ccc2[nH]c(-c3nncn3-c3cnccc3C(F)(F)F)c(-c3cccnn3)c2c1 [Compound 426, 3-pyridazin-3-yl-5-(trifluoromethyl)-2-[4-[4-(trifluoromethyl)-3-pyridyl]-1,2,4-triazol-3-yl]-1H-indole]
Fc1cc(C2CC2)cc2nc(-c3nnccc3-c3cnccc3C(F)(F)F)[nH]c12 [Compound 420, 6-cyclopropyl-4-fluoro-2-(4-(4-(trifluoromethyl)pyridin-3-yl)pyridazin-3-yl)-1H-benzo[d]imidazole]
C=C(CF)c1cc(F)c2[nH]c(-c3nncn3-c3cnccc3C(F)(F)F)nc2c1 [Compound 286, 7-fluoro-5-(3-fluoroprop-1-en-2-yl)-2-(4-(4-(trifluoromethyl)pyridin-3-yl)-4H-1,2,4-triazol-3-yl)-1H-benzo[d]imidazole]

IC50, 100 to 500 nM:
NC(=O)c1nc(Cl)c(-n2cnnc2-c2nc3cc(C(F)(F)F)cc(F)c3[nH]2)s1 [Compound 216, 4-chloro-5-(3-(7-fluoro-5-(trifluoromethyl)-1H-benzo[d]imidazol-2-yl)-4H-1,2,4-triazol-4-yl)thiazole-2-carboxamide]
CN(c1ccc2[nH]c(-c3nncn3-c3cnccc3C(F)(F)F)nc2c1)S(C)(=O)=O [Compound 341, N-methyl-N-[2-[4-[4-(trifluoromethyl)-3-pyridyl]-1,2,4-triazol-3-yl]-1H-benzimidazol-5-yl]methanesulfonamide]
Cc1nccc(-n2cnnc2-c2nc3cc(C(F)(F)F)ccc3[nH]2)c1Cl [Example 71]
FC(F)(F)c1ccncc1-n1cnnc1-c1nc2cc(C3CCOCC3)ccc2[nH]1 [Compound 352, 5-tetrahydropyran-4-yl-2-[4-[4-(trifluoromethyl)-3-pyridyl]-1,2,4-triazol-3-yl]-1H-benzimidazole]
COCCOc1c(Cl)ccc2[nH]c(-c3nncn3-c3cnccc3C(F)(F)F)nc12 [Compound 371, 5-chloro-4-(2-methoxyethoxy)-2-(4-(4-(trifluoromethyl)pyridin-3-yl)-4H-1,2,4-triazol-3-yl)-1H-benzo[d]imidazole]

IC50, > 1000 nM:
Cn1cc(-c2nc(Cl)c(Cl)s2)c(-c2nc3cc(C(F)(F)F)ccc3[nH]2)cc1=O [Compound 97]
O=C1CN(c2ccccc2)C(c2nc3cc(C(F)(F)F)ccc3[nH]2)CN1 (stereo not shown) [Compound 369, 4-phenyl-5-(5-(trifluoromethyl)-1H-benzo[d]imidazol-2-yl)piperazin-2-one]
FC(F)(F)c1ncc2[nH]c(-c3nncn3-c3cnccc3C(F)(F)F)cc2n1 [Compound 378, 2-(trifluoromethyl)-6-(4-(4-(trifluoromethyl)pyridin-3-yl)-4H-1,2,4-triazol-3-yl)-5H-pyrrolo[3,2-d]pyrimidine]
Cc1ccc2[nH]c(-c3nncn3C3CCCC3)c(CO)c2c1 [Compound 11, [2-(4-cyclopentyl-1,2,4-triazol-3-yl)-5-methyl-1H-indol-3-yl]methanol]
Cc1ncsc1-n1cnnc1-c1nc2cc(C(F)(F)F)ccc2[nH]1 [Compound 272, 4-methyl-5-(3-(5-(trifluoromethyl)-1H-benzo[d]imidazol-2-yl)-4H-1,2,4-triazol-4-yl)thiazole]
O=S1(=O)Cc2ccc3[nH]c(-c4nncn4-c4cccc(F)c4Cl)nc3c2C1 [Compound 198, 2-(4-(2-chloro-3-fluorophenyl)-4H-1,2,4-triazol-3-yl)-6,8-dihydro-3H-thieno[3',4':3,4]benzo[1,2-d]imidazole 7,7-dioxide]
